The CheMixHub viscosity set
Values joined by “and” are separate entries in the source; they are usually repeats but may differ in a detail not shown here. Identical values can stand only once.

Test: xn = mol fraction of the nth substance listed

C1CCOC1 + CC(C)CC(C)(C)C
viscosity [mPa·s], 101 kPa
Details	x1 = 0.1001	x1 = 0.2	x1 = 0.3	x1 = 0.4	x1 = 0.5	x1 = 0.6	x1 = 0.7	x1 = 0.8	x1 = 0.9
298.15 K	0.479	0.477	0.475	0.474	0.473	0.472	0.472	0.471	0.471
308.15 K	0.433	0.432	0.432	0.431	0.431	0.432	0.432	0.432	0.432

COc1ccccc1 + CCO
298.15 K, 101 kPa
Details	viscosity [mPa·s]
x1 = 0.07099	1.045
x1 = 0.152	0.989
x1 = 0.2432	0.947
x1 = 0.3485	0.918
x1 = 0.4715	0.904
x1 = 0.6165	0.905
x1 = 0.7928	0.924

COc1ccccc1 + CC1COC(=O)O1
viscosity [mPa·s], 101.33 kPa
Details	x2 = 0.0794	x2 = 0.1323	x2 = 0.2487	x2 = 0.3578	x2 = 0.4971	x2 = 0.5795	x2 = 0.6669	x2 = 0.7278	x2 = 0.835	x2 = 0.9009
293.15 K	1.142	1.199	1.316	1.449	1.64	1.773	1.917	2.031	2.246	2.406
303.15 K	0.971	1.013	1.101	1.212	1.372	1.479	1.591	1.682	1.851	1.978
313.15 K	0.849	0.889	0.972	1.066	1.177	1.26	1.347	1.423	1.569	1.671

CC(C)=O + CCOC(C)=O
viscosity [mPa·s], 101 kPa
Details	x2 = 0.0999	x2 = 0.2009	x2 = 0.3284	x2 = 0.4015	x2 = 0.4977	x2 = 0.5969	x2 = 0.6915	x2 = 0.7908	x2 = 0.9076
293.15 K	0.3328	0.3471	0.3615	0.3751	0.3871	0.4003	0.4129	0.4274	0.4419
298.15 K	0.317	0.3305	0.3438	0.3563	0.3674	0.3795	0.3913	0.4035	0.4179
303.15 K	0.3022	0.3151	0.3274	0.3375	0.3502	0.3603	0.3716	0.3825	0.3961
313.15 K	0.2757	0.2877	0.2982	0.3065	0.3182	0.3262	0.3364	0.3455	0.3573

CCCc1ccccc1 + C1CCCCC1
303.15 K, 101 kPa
Details	viscosity [mPa·s]
x2 = 0.1018	0.7449
x2 = 0.2046	0.7318
x2 = 0.3024	0.7218
x2 = 0.3975	0.7149
x2 = 0.5018	0.7144
x2 = 0.6007	0.716
x2 = 0.6984	0.7272
x2 = 0.7974	0.749
x2 = 0.9039	0.7828

CCCCCCCCC(=O)O + CCCCCC(=O)[O-].[Na+]
100 kPa, x2 = 0.3
Details	viscosity [mPa·s]
293.15 K	280.5
298.15 K	209
303.15 K	158.8
308.15 K	122.9
313.15 K	96.5
318.15 K	76.9
323.15 K	62.2

CNC(N)=O + O
viscosity [mPa·s], 101 kPa
Details	x1 = 9.02e-05	x1 = 0.00018	x1 = 0.00027	x1 = 0.00036	x1 = 0.0005402	x1 = 0.00108	x1 = 0.001799	x1 = 0.004484
293.15 K	1.003	1.01	1.002	1.007	1.008	1.017	1.013	1.036
298.15 K	0.8881	0.8936	0.8933	0.8922	0.8992	0.9009	0.8963	0.9188
303.15 K	–	0.7986	0.7953	0.798	0.8003	0.8032	0.8075	0.8214

CCCCn1cc[n+](C)c1.O=S(=O)([O-])C(F)(F)F + CCOC(C)=O
100 kPa
Details	viscosity [mPa·s]
298.15 K, x1 = 0.8932	54.68
303.15 K, x1 = 0.3056	8.97
308.15 K, x1 = 0.3056	7.31
313.15 K, x1 = 0.3056	6.63
313.15 K, x1 = 0.3978	9.79
318.15 K, x1 = 0.3056	5.79
323.15 K, x1 = 0.3056	4.97
323.15 K, x1 = 0.3978	7.21
323.15 K, x1 = 0.5067	9.88

CC(C)=O + Cc1ccccc1
Details	viscosity
293.15 K, 101.32 kPa, x2 = 0.072	0.3349 mPa·s
293.15 K, 101.32 kPa, x2 = 0.148	0.3525 mPa·s
293.15 K, 101.32 kPa, x2 = 0.229	0.374 mPa·s
293.15 K, 101.32 kPa, x2 = 0.317	0.3966 mPa·s
293.15 K, 101.32 kPa, x2 = 0.409	0.42 mPa·s
293.15 K, 101.32 kPa, x2 = 0.509	0.4506 mPa·s
293.15 K, 101.32 kPa, x2 = 0.617	0.4775 mPa·s
293.15 K, 101.32 kPa, x2 = 0.735	0.5095 mPa·s
293.15 K, 101.32 kPa, x2 = 0.862	0.5472 mPa·s
298.15 K, 101 kPa, x1 = 0.0233	0.548 mPa·s
298.15 K, 101 kPa, x1 = 0.0652	0.537 mPa·s
298.15 K, 101 kPa, x1 = 0.1349	0.518 mPa·s
298.15 K, 101 kPa, x1 = 0.2009	0.499 mPa·s
298.15 K, 101 kPa, x1 = 0.301	0.475 mPa·s
298.15 K, 101 kPa, x1 = 0.3387	0.465 mPa·s
298.15 K, 101 kPa, x1 = 0.412	0.445 mPa·s
298.15 K, 101 kPa, x1 = 0.5133	0.419 mPa·s
298.15 K, 101 kPa, x1 = 0.515	0.418 mPa·s
298.15 K, 101 kPa, x1 = 0.6017	0.396 mPa·s
298.15 K, 101 kPa, x1 = 0.6968	0.372 mPa·s
298.15 K, 101 kPa, x1 = 0.7979	0.349 mPa·s
298.15 K, 101 kPa, x1 = 0.8969	0.325 mPa·s
298.15 K, 101 kPa, x2 = 0.0702	0.3418 mPa·s and 0.3418 mPa·s
298.15 K, 101 kPa, x2 = 0.1468	0.3759 mPa·s and 0.3759 mPa·s
298.15 K, 101 kPa, x2 = 0.2269	0.4076 mPa·s and 0.4076 mPa·s
298.15 K, 101 kPa, x2 = 0.3135	0.4383 mPa·s and 0.4383 mPa·s
298.15 K, 101 kPa, x2 = 0.4051	0.4662 mPa·s and 0.4662 mPa·s
298.15 K, 101 kPa, x2 = 0.5072	0.4893 mPa·s and 0.4893 mPa·s
298.15 K, 101 kPa, x2 = 0.616	0.5092 mPa·s and 0.5092 mPa·s
298.15 K, 101 kPa, x2 = 0.7355	0.5293 mPa·s and 0.5293 mPa·s
298.15 K, 101 kPa, x2 = 0.8629	0.5462 mPa·s and 0.5462 mPa·s
298.15 K, 101.32 kPa, x2 = 0.073	0.3172 mPa·s
298.15 K, 101.32 kPa, x2 = 0.148	0.3344 mPa·s
298.15 K, 101.32 kPa, x2 = 0.229	0.353 mPa·s
298.15 K, 101.32 kPa, x2 = 0.317	0.3764 mPa·s
298.15 K, 101.32 kPa, x2 = 0.41	0.3994 mPa·s
298.15 K, 101.32 kPa, x2 = 0.509	0.4236 mPa·s
298.15 K, 101.32 kPa, x2 = 0.618	0.4521 mPa·s
298.15 K, 101.32 kPa, x2 = 0.735	0.4807 mPa·s
298.15 K, 101.32 kPa, x2 = 0.862	0.5138 mPa·s
303.15 K, 101 kPa, x2 = 0.0702	0.3218 mPa·s and 0.3218 mPa·s
303.15 K, 101 kPa, x2 = 0.0929	0.3192 mPa·s
303.15 K, 101 kPa, x2 = 0.1468	0.3527 mPa·s and 0.3527 mPa·s
303.15 K, 101 kPa, x2 = 0.2269	0.381 mPa·s and 0.381 mPa·s
303.15 K, 101 kPa, x2 = 0.3135	0.4098 mPa·s and 0.4098 mPa·s
303.15 K, 101 kPa, x2 = 0.3674	0.4169 mPa·s
303.15 K, 101 kPa, x2 = 0.4051	0.4358 mPa·s and 0.4358 mPa·s
303.15 K, 101 kPa, x2 = 0.5072	0.4553 mPa·s and 0.4553 mPa·s
303.15 K, 101 kPa, x2 = 0.616	0.475 mPa·s and 0.475 mPa·s
303.15 K, 101 kPa, x2 = 0.7355	0.4947 mPa·s and 0.4947 mPa·s
303.15 K, 101 kPa, x2 = 0.8102	0.4984 mPa·s
303.15 K, 101 kPa, x2 = 0.8629	0.5144 mPa·s and 0.5144 mPa·s
308.15 K, 101 kPa, x2 = 0.0702	0.3021 mPa·s and 0.3021 mPa·s
308.15 K, 101 kPa, x2 = 0.1468	0.3267 mPa·s and 0.3267 mPa·s
308.15 K, 101 kPa, x2 = 0.2269	0.3517 mPa·s and 0.3517 mPa·s
308.15 K, 101 kPa, x2 = 0.3135	0.3785 mPa·s and 0.3785 mPa·s
308.15 K, 101 kPa, x2 = 0.4051	0.404 mPa·s and 0.404 mPa·s
308.15 K, 101 kPa, x2 = 0.5072	0.425 mPa·s and 0.425 mPa·s
308.15 K, 101 kPa, x2 = 0.616	0.4443 mPa·s and 0.4443 mPa·s
308.15 K, 101 kPa, x2 = 0.7355	0.4638 mPa·s and 0.4638 mPa·s
308.15 K, 101 kPa, x2 = 0.8629	0.4848 mPa·s and 0.4848 mPa·s
308.15 K, 101.32 kPa, x2 = 0.073	0.2891 mPa·s
308.15 K, 101.32 kPa, x2 = 0.149	0.3036 mPa·s
308.15 K, 101.32 kPa, x2 = 0.23	0.3204 mPa·s
308.15 K, 101.32 kPa, x2 = 0.318	0.3407 mPa·s
308.15 K, 101.32 kPa, x2 = 0.411	0.3615 mPa·s
308.15 K, 101.32 kPa, x2 = 0.51	0.3829 mPa·s
308.15 K, 101.32 kPa, x2 = 0.619	0.4072 mPa·s
308.15 K, 101.32 kPa, x2 = 0.736	0.4335 mPa·s
308.15 K, 101.32 kPa, x2 = 0.862	0.463 mPa·s
313.15 K, 101 kPa, x2 = 0.0929	0.2858 mPa·s
313.15 K, 101 kPa, x2 = 0.3674	0.3952 mPa·s
313.15 K, 101 kPa, x2 = 0.8102	0.4622 mPa·s
318.15 K, 101.32 kPa, x2 = 0.073	0.2628 mPa·s
318.15 K, 101.32 kPa, x2 = 0.149	0.2767 mPa·s
318.15 K, 101.32 kPa, x2 = 0.23	0.2923 mPa·s
318.15 K, 101.32 kPa, x2 = 0.319	0.3081 mPa·s
318.15 K, 101.32 kPa, x2 = 0.412	0.3264 mPa·s
318.15 K, 101.32 kPa, x2 = 0.511	0.347 mPa·s
318.15 K, 101.32 kPa, x2 = 0.61	0.367 mPa·s
318.15 K, 101.32 kPa, x2 = 0.737	0.3916 mPa·s
318.15 K, 101.32 kPa, x2 = 0.863	0.4162 mPa·s
323.15 K, 101 kPa, x2 = 0.0929	0.2564 mPa·s
323.15 K, 101 kPa, x2 = 0.3674	0.3538 mPa·s
323.15 K, 101 kPa, x2 = 0.8102	0.4467 mPa·s
